Assay results published in publication PMC9706563, “Development of Macrocyclic PRMT5–Adaptor Protein Interaction Inhibitors” (Journal of Medicinal Chemistry, 2022).
Square brackets hold non-standard residues; d marks the D form. Peptide text beside a SMILES is read from it. * marks the point of attachment. FITC = O=C1OC2(c3ccc(O)cc3Oc3cc(O)ccc32)c2ccc(NC(=S)*)cc21; Phe(4-guanidino) = N=C(N)Nc1ccc(C[C@H](N)C(=O)O)cc1; Phe(3-CF3) = N[C@@H](Cc1cccc(C(F)(F)F)c1)C(=O)O; Phe(F5) = N[C@@H](Cc1c(F)c(F)c(F)c(F)c1F)C(=O)O; Phe(4-COOH) = N[C@@H](Cc1ccc(C(=O)O)cc1)C(=O)O; Phe(2-Ph) = N[C@@H](Cc1ccccc1-c1ccccc1)C(=O)O; Phe(3-Cl) = N[C@@H](Cc1cccc(Cl)c1)C(=O)O; Phe(2-F) = N[C@@H](Cc1ccccc1F)C(=O)O; Phe(2-I) = N[C@@H](Cc1ccccc1I)C(=O)O; hPhe = N[C@@H](CCc1ccccc1)C(=O)O; 2Pal = N[C@@H](Cc1ccccn1)C(=O)O; Cit = NC(=O)NCCC[C@H](N)C(=O)O; Dab = NCC[C@H](N)C(=O)O; Alloc = C=CCOC(=O)*

These compounds were tested against T1, PRMT5-MEP50 (Homo sapiens, UniProt O14744) (assay: Direct binding fluorescence polarization (FP) assay of FITC-labeled peptides). Conditions: supplementary CSV, read-out: PRMT5-MEP50 Kd.
T1 construct: The compounds were tested by means of FP with the full-length PRMT5-MEP50 complex; made in house
T1 sequence (O14744 whole entry): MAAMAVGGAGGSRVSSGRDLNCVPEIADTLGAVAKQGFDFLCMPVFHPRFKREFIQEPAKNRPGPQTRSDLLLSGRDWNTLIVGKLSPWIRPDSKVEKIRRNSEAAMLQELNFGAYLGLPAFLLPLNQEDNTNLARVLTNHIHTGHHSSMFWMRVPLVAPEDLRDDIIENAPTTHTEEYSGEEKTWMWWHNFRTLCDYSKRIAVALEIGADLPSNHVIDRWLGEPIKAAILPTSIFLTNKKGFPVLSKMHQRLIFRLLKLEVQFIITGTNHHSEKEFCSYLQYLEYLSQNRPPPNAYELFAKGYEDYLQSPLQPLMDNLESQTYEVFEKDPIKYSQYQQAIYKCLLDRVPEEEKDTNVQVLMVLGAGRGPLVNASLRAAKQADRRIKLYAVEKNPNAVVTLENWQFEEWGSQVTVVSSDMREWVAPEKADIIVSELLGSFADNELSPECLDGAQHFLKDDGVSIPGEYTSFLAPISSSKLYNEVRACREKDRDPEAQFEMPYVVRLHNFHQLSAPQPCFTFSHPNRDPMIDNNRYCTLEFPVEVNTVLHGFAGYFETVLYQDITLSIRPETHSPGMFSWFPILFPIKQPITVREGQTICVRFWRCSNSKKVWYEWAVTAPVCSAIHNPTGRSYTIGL
T1 sequence (Q9BQA1 whole entry partner): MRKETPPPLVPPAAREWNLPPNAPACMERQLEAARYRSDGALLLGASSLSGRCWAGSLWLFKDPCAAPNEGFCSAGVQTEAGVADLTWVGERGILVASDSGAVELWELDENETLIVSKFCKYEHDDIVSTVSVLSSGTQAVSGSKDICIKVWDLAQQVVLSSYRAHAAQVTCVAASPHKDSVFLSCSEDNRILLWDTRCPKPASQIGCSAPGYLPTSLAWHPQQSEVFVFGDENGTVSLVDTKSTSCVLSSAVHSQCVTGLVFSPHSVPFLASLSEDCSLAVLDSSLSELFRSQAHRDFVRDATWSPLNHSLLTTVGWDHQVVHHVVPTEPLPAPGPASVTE
Method: The assay was performed in a buffer of 50 mM 4-(2-hydroxyethyl)-1-piperazineethanesulfonic acid (HEPES), 250 mM NaCl, 1 mM tris(2-carboxyethyl)phosphine (TCEP), and 0.01% (v/v) Tween 20, pH 8.0, in black, 384-well plates with a total volume of 10 μL per well. […] The plates were incubated at room temperature for 1 to 2 h and analyzed on a plate reader using 485 nm excitation and 535 nm emission wavelength. The assay was performed in triplicate.

| SMILES | Kd [nM] |
| --- | --- |
| CC(=O)N[C@@H](CCC(=O)O)C(=O)N1CCC[C@H]1C(=O)NCC(=O)N[C@@H](CCC(N)=O)C(=O)N[C@@H](Cc1ccccc1)C(=O)N[C@@H](CC(=O)O)C(=O)N[C@@H](CC(=O)O)C(=O)N[C@@H](C)C(=O)N[C@@H](CC(=O)O)C(=O)N[C@@H](CCCCNC(=S)Nc1ccc2c(c1)C(=O)OC21c2ccc(O)cc2Oc2cc(O)ccc21)C(N)=O [Compound S7] (Ac-EPGQFDDADK(FITC)-NH2) | 695 ± 78 |
| CC(=O)N[C@H](C(=O)N1CCC[C@H]1C(=O)NCC(=O)N[C@@H](CC(N)=O)C(=O)N[C@@H](Cc1ccccc1)C(=O)N[C@@H](CC(=O)O)C(=O)N[C@@H](CC(=O)O)C(=O)N[C@@H](C)C(=O)N[C@@H](CC(=O)O)C(=O)N[C@@H](CCCCNC(=S)Nc1ccc2c(c1)C(=O)OC21c2ccc(O)cc2Oc2cc(O)ccc21)C(N)=O)C(C)C [Compound S8] (Ac-VPGNFDDADK(FITC)-NH2) | > 1000 |
| CC(=O)N[C@H](C(=O)N1CCC[C@H]1C(=O)NCC(=O)N[C@@H](CCN)C(=O)N[C@@H](Cc1ccccc1)C(=O)N[C@@H](CC(=O)O)C(=O)N[C@@H](CC(=O)O)C(=O)N[C@@H](C)C(=O)N[C@@H](CC(=O)O)C(=O)N[C@@H](CCCCNC(=S)Nc1ccc2c(c1)C(=O)OC21c2ccc(O)cc2Oc2cc(O)ccc21)C(N)=O)C(C)C [Compound S9] (Ac-VPG[Dab]FDDADK(FITC)-NH2) | > 1000 |
| C=CCOC(=O)NCC[C@H](NC(=O)CNC(=O)[C@@H]1CCCN1C(=O)[C@@H](NC(C)=O)C(C)C)C(=O)N[C@@H](Cc1ccccc1)C(=O)N[C@@H](CC(=O)O)C(=O)N[C@@H](CC(=O)O)C(=O)N[C@@H](C)C(=O)N[C@@H](CC(=O)O)C(=O)N[C@@H](CCCCNC(=S)Nc1ccc2c(c1)C(=O)OC21c2ccc(O)cc2Oc2cc(O)ccc21)C(N)=O [Compound S10] (Ac-VPG[Dab](Alloc)FDDADK(FITC)-NH2) | > 1000 |
| CC(=O)N[C@H](C(=O)N1CCC[C@H]1C(=O)NCC(=O)N[C@@H](CCCNC(N)=O)C(=O)N[C@@H](Cc1ccccc1)C(=O)N[C@@H](CC(=O)O)C(=O)N[C@@H](CC(=O)O)C(=O)N[C@@H](C)C(=O)N[C@@H](CC(=O)O)C(=O)N[C@@H](CCCCNC(=S)Nc1ccc2c(c1)C(=O)OC21c2ccc(O)cc2Oc2cc(O)ccc21)C(N)=O)C(C)C [Compound S11] (Ac-VPG[Cit]FDDADK(FITC)-NH2) | > 1000 |
| CC(=O)N[C@H](C(=O)N1CCC[C@H]1C(=O)NCC(=O)N[C@@H](CCC(N)=O)C(=O)N[C@@H](Cc1ccccc1F)C(=O)N[C@@H](CC(=O)O)C(=O)N[C@@H](CC(=O)O)C(=O)N[C@@H](C)C(=O)N[C@@H](CC(=O)O)C(=O)N[C@@H](CCCCNC(=S)Nc1ccc2c(c1)C(=O)OC21c2ccc(O)cc2Oc2cc(O)ccc21)C(N)=O)C(C)C [Compound S12] (Ac-VPGQ[Phe(2-F)]DDADK(FITC)-NH2) | > 1000 |
| CC(=O)N[C@H](C(=O)N1CCC[C@H]1C(=O)NCC(=O)N[C@@H](CCC(N)=O)C(=O)N[C@@H](Cc1c(F)c(F)c(F)c(F)c1F)C(=O)N[C@@H](CC(=O)O)C(=O)N[C@@H](CC(=O)O)C(=O)N[C@@H](C)C(=O)N[C@@H](CC(=O)O)C(=O)N[C@@H](CCCCNC(=S)Nc1ccc2c(c1)C(=O)OC21c2ccc(O)cc2Oc2cc(O)ccc21)C(N)=O)C(C)C [Compound S13] (Ac-VPGQ[Phe(F5)]DDADK(FITC)-NH2) | > 1000 |
| CC(=O)N[C@H](C(=O)N1CCC[C@H]1C(=O)NCC(=O)N[C@@H](CCC(N)=O)C(=O)N[C@@H](Cc1ccccc1I)C(=O)N[C@@H](CC(=O)O)C(=O)N[C@@H](CC(=O)O)C(=O)N[C@@H](C)C(=O)N[C@@H](CC(=O)O)C(=O)N[C@@H](CCCCNC(=S)Nc1ccc2c(c1)C(=O)OC21c2ccc(O)cc2Oc2cc(O)ccc21)C(N)=O)C(C)C [Compound S14] (Ac-VPGQ[Phe(2-I)]DDADK(FITC)-NH2) | > 1000 |
| CC(=O)N[C@H](C(=O)N1CCC[C@H]1C(=O)NCC(=O)N[C@@H](CCC(N)=O)C(=O)N[C@@H](Cc1cccc(Cl)c1)C(=O)N[C@@H](CC(=O)O)C(=O)N[C@@H](CC(=O)O)C(=O)N[C@@H](C)C(=O)N[C@@H](CC(=O)O)C(=O)N[C@@H](CCCCNC(=S)Nc1ccc2c(c1)C(=O)OC21c2ccc(O)cc2Oc2cc(O)ccc21)C(N)=O)C(C)C [Compound S15] (Ac-VPGQ[Phe(3-Cl)]DDADK(FITC)-NH2) | > 1000 |
| CC(=O)N[C@H](C(=O)N1CCC[C@H]1C(=O)NCC(=O)N[C@@H](CCC(N)=O)C(=O)N[C@@H](Cc1cccc(C(F)(F)F)c1)C(=O)N[C@@H](CC(=O)O)C(=O)N[C@@H](CC(=O)O)C(=O)N[C@@H](C)C(=O)N[C@@H](CC(=O)O)C(=O)N[C@@H](CCCCNC(=S)Nc1ccc2c(c1)C(=O)OC21c2ccc(O)cc2Oc2cc(O)ccc21)C(N)=O)C(C)C [Compound S16] (Ac-VPGQ[Phe(3-CF3)]DDADK(FITC)-NH2) | > 1000 |
| CC(=O)N[C@H](C(=O)N1CCC[C@H]1C(=O)NCC(=O)N[C@@H](CCC(N)=O)C(=O)N[C@@H](Cc1ccccn1)C(=O)N[C@@H](CC(=O)O)C(=O)N[C@@H](CC(=O)O)C(=O)N[C@@H](C)C(=O)N[C@@H](CC(=O)O)C(=O)N[C@@H](CCCCNC(=S)Nc1ccc2c(c1)C(=O)OC21c2ccc(O)cc2Oc2cc(O)ccc21)C(N)=O)C(C)C [Compound S17] (Ac-VPGQ[2Pal]DDADK(FITC)-NH2) | > 1000 |
| CC(=O)N[C@H](C(=O)N1CCC[C@H]1C(=O)NCC(=O)N[C@@H](CCC(N)=O)C(=O)N[C@@H](Cc1ccc(O)cc1)C(=O)N[C@@H](CC(=O)O)C(=O)N[C@@H](CC(=O)O)C(=O)N[C@@H](C)C(=O)N[C@@H](CC(=O)O)C(=O)N[C@@H](CCCCNC(=S)Nc1ccc2c(c1)C(=O)OC21c2ccc(O)cc2Oc2cc(O)ccc21)C(N)=O)C(C)C [Compound S18] (Ac-VPGQYDDADK(FITC)-NH2) | > 1000 |
| CC(=O)N[C@H](C(=O)N1CCC[C@H]1C(=O)NCC(=O)N[C@@H](CCC(N)=O)C(=O)N[C@@H](Cc1ccc(C(=O)O)cc1)C(=O)N[C@@H](CC(=O)O)C(=O)N[C@@H](CC(=O)O)C(=O)N[C@@H](C)C(=O)N[C@@H](CC(=O)O)C(=O)N[C@@H](CCCCNC(=S)Nc1ccc2c(c1)C(=O)OC21c2ccc(O)cc2Oc2cc(O)ccc21)C(N)=O)C(C)C [Compound S19] (Ac-VPGQ[Phe(4-COOH)]DDADK(FITC)-NH2) | > 1000 |
| CC(=O)N[C@H](C(=O)N1CCC[C@H]1C(=O)NCC(=O)N[C@@H](CCC(N)=O)C(=O)N[C@@H](Cc1ccc(N=C(N)N)cc1)C(=O)N[C@@H](CC(=O)O)C(=O)N[C@@H](CC(=O)O)C(=O)N[C@@H](C)C(=O)N[C@@H](CC(=O)O)C(=O)N[C@@H](CCCCNC(=S)Nc1ccc2c(c1)C(=O)OC21c2ccc(O)cc2Oc2cc(O)ccc21)C(N)=O)C(C)C [Compound S20] (Ac-VPGQ[Phe(4-guanidino)]DDADK(FITC)-NH2) | > 1000 |
| CC(=O)N[C@H](C(=O)N1CCC[C@H]1C(=O)NCC(=O)N[C@@H](CCC(N)=O)C(=O)N[C@@H](CCc1ccccc1)C(=O)N[C@@H](CC(=O)O)C(=O)N[C@@H](CC(=O)O)C(=O)N[C@@H](C)C(=O)N[C@@H](CC(=O)O)C(=O)N[C@@H](CCCCNC(=S)Nc1ccc2c(c1)C(=O)OC21c2ccc(O)cc2Oc2cc(O)ccc21)C(N)=O)C(C)C [Compound S21] (Ac-VPGQ[hPhe]DDADK(FITC)-NH2) | > 1000 |
| CC(=O)N[C@H](C(=O)N1CCC[C@H]1C(=O)NCC(=O)N[C@@H](CCC(N)=O)C(=O)N[C@@H](Cc1ccccc1-c1ccccc1)C(=O)N[C@@H](CC(=O)O)C(=O)N[C@@H](CC(=O)O)C(=O)N[C@@H](C)C(=O)N[C@@H](CC(=O)O)C(=O)N[C@@H](CCCCNC(=S)Nc1ccc2c(c1)C(=O)OC21c2ccc(O)cc2Oc2cc(O)ccc21)C(N)=O)C(C)C [Compound S22] (Ac-VPGQ[Phe(2-Ph)]DDADK(FITC)-NH2) | > 1000 |
